According to publication PMC9942557, “Bolaamphiphile Analogues of 12-bis-THA Cl2 Are Potent Antimicrobial Therapeutics with Distinct Mechanisms of Action against Bacterial, Mycobacterial, and Fungal Pathogens” (mSphere, 2022):
Like-named read-outs stand apart in the source and are kept apart here.

What was measured:
[1] = system: C. krusei 3876; experiment: Broth microdilution MIC; assay type: cell-based
[2] = system: EMR Staphylococcus aureus 16 NCTC 13277; experiment: Broth microdilution MIC; assay type: cell-based
[3] = system: Acinetobacter baumannii AYE; experiment: Broth microdilution MIC; assay type: cell-based
[4] = system: M. tuberculosis Bleupan; experiment: microbe, parasite or virus in culture; assay type: cell-based, Mycobacterium tuberculosis
[5] = system: P. aeruginosa PAO1; experiment: Checkerboard synergy assay; assay type: cell-based, Pseudomonas aeruginosa; settings: for MIC: Pseudomonas aeruginosa, read-out: MIC Alone Bolalipid
[6] = system: VR Enterococcus faecalis NCTC 12201; experiment: Broth microdilution MIC; assay type: cell-based
[7] = system: C. glabrata 8018; experiment: Broth microdilution MIC; assay type: cell-based; settings: C. glabrata 8018
[8] = system: Pseudomonas aeruginosa PAO1; experiment: Broth microdilution MIC; assay type: cell-based
[9] = system: C. tropicalis 8760; experiment: Broth microdilution MIC; assay type: cell-based; settings: C. tropicalis 8760
[10] = system: Acinetobacter baumannii ATCC 17978; experiment: Broth microdilution MIC; assay type: cell-based
[11] = system: C. parapsilosis; experiment: Broth microdilution MIC; assay type: cell-based
[12] = system: C. parapsilosis 3209; experiment: Broth microdilution MIC; assay type: cell-based
[13] = system: C. albicans 3281; experiment: Broth microdilution MIC; assay type: cell-based, Candida albicans; settings: C. albicans 3281
[14] = Dynamic light scattering; assay type: physicochemical; settings: 0.36 mM in water
Experimental: Stock solutions of bolalipids were prepared by dispersing the powder in ultrapure water, then stirring vigorously by vortexing, and sonicating in a 40°C bath sonicator for 20 min. The concentration of each stock solution corresponds to the highest solubility achieved in water for each bolalipid, using the method described above. DLS experiments were performed on a Malvern Zetasizer Nano (Malvern Instruments, Worcestershire, UK) in back-scattering mode at 20°C. There were three independent measurements of each sample and 12 runs for each measurement, with 10 s taken for each run. The attenuator index and measurement position were automatically adjusted. Fifty microliters of each sample was transferred into polystyrene semi-microcuvettes for determination of UV and visible wavelengths (Sarstedt).

[15] = system: VR Enterococcus faecium NCTC 12204; experiment: Broth microdilution MIC; assay type: cell-based
[16] = system: M. smegmatis mc^2 155; experiment: Broth microdilution MIC (Middlebrook 7H9); assay type: cell-based, Mycobacterium smegmatis
[17] = system: HeLa; experiment: In vitro toxicity for cell line; assay type: cell-based, human; settings: average ± standard error from 3 independent repeats; for EC50: Homo sapiens, read-out: Toxicity (EC50)
Text: (§1) TABLE 2 Toxicity of bolaamphiphiles for two cell lines^a | column: Toxicity (EC50 [μg/ml]) of: / 12-bis-THA Cl2; Toxicity (EC50 [μg/ml]) of: / Dequalinium; Toxicity (EC50 [μg/ml]) of: / Quino-bola; Toxicity (EC50 [μg/ml]) of: / Penta-bola; Toxicity (EC50 [μg/ml]) of: / Hepta-bola; Toxicity (EC50 [μg/ml]) of: / Octa-bola; Toxicity (EC50 [μg/ml]) of: / Octa-C10; Toxicity (EC50 [μg/ml]) of: / Octa-C8; Toxicity (EC50 [μg/ml]) of: / Octa-C6

[18] = system: HEK293; experiment: In vitro toxicity for cell line; assay type: cell-based, human; settings: HEK293, average ± standard error from 3 independent repeats; for EC50: Homo sapiens, read-out: Toxicity (EC50)
Text: as §1

[19] = system: pBR322 plasmid, wheat germ topoisomerase I; experiment: DNA unwinding assay; assay type: biochemical; settings: for DNA intercalation: relaxed pBR322 plasmid plus topoisomerase I (Fig. 2A); for relaxation of supercoiled plasmid through the action of topoisomerase I: supercoiled pBR322 plasmid, bolalipid present (Fig. 2B)
Experimental: A DNA unwinding assay kit (Inspiralis Limited, Norwich, UK) consists of wheat germ topoisomerase I assay buffer (50 mM Tris HCl [pH 7.9], 1 mM EDTA, 1 mM dithiothreitol [DTT], 20% [vol/vol] glycerol, 50 mM NaCl) dilution buffer (50 mM Tris HCl [pH 7.9], 1 mM EDTA, 1 mM DTT, 50% [vol/vol] glycerol, 500 mM NaCl), wheat germ topoisomerase I (5 U/μL), supercoiled plasmid pBR322 (1 μg/μL), and relaxed plasmid pBR322 (1 μg/μL). For the experiments, 2× DNA loading buffer containing 40% (wt/vol) sucrose, 100 mM Tris-HCl (pH 8), 1 mM EDTA, and 0.5 mg/mL bromophenol blue was prepared. The enzyme was diluted 1/5 with dilution buffer before being used in the assay. For the assay, 3 mM stock solutions in methanol of the compounds to be tested were prepared. An appropriate number of 1.5-mL Eppendorf tubes were filled with 25 μL of a mix consisting of assay buffer (15 μL of buffer per sample), supercoiled or relaxed pBR322 (0.5 μg/assay), and ultrapure water. In the first two tubes, 1 μL of methanol was added to test the effect of the solvent on both the plasmid and the enzyme. Subsequently, 1 μL of the test compounds was added to the remaining tubes, and the tubes briefly vortexed and incubated at room temperature for 5 min. After that, 2 μL of dilution buffer was added in the first tube, whereas 2 μL of enzyme diluted solution was added to the remaining tubes. The tubes were gently vortexed and incubated for 30 min at 37°C in a water bath. After this time, the reaction was stopped by adding 20 μL of water and 50 μL of water-saturated butanol to each tube. The tubes were vortexed and centrifuged for 1 min at 14,800 rpm. The lower aqueous layer of each tube was removed and transferred to a new tube containing 30 μL of chloroform-isoamyl alcohol (24/1) and 50 μL of loading buffer. The tubes were briefly vortexed and centrifuged for 1 min. Twenty microliters of the upper layer of each tube was loaded onto a 1% (wt/vol) agarose gel, and the gel was run at 80 V for approximately 4 h in Tris-acetate-EDTA buffer (40 mM Tris acetate and 1 mM EDTA). Subsequently, the gel was stained with ethidium bromide (1 μg/mL) for 15 min, briefly destained (5 to 10 min) in water, and visualized with a Multi-Doc Imaging M-26X UVP transilluminator.

[20] = system: Klebsiella pneumoniae M6; experiment: Broth microdilution MIC; assay type: cell-based
[21] = system: Gram-negative bacteria (avg); experiment: Selectivity index (toxicity/potency); assay type: cell-based; settings: ratio of average toxicity (HEK293 and HeLa) to average potency
Text: TABLE 3 Selectivity indices of bolaamphiphiles | column: Selectivity of^a: / 12-bis-THA Cl2; Selectivity of^a: / Dequalinium; Selectivity of^a: / Quino-bola; Selectivity of^a: / Penta-bola; Selectivity of^a: / Hepta-bola; Selectivity of^a: / Octa-bola; Selectivity of^a: / Octa-C10; Selectivity of^a: / Octa-C8; Selectivity of^a: / Octa-C6

[22] = EMR Staphylococcus aureus 16 NCTC 13277
[23] = VR Enterococcus faecalis NCTC 12201
[24] = VR Enterococcus faecium NCTC 12204
[25] = Pichia kudriavzevii, read-out: MIC
[26] = Nakaseomyces glabratus, read-out: MIC
[27] = Candida tropicalis, read-out: MIC
[28] = Lodderomyces parapsilosis, read-out: MIC
[29] = Candida albicans, read-out: MIC
[30] = Mycolicibacterium smegmatis, MC^2155, read-out: MIC

| Compound | MIC [1] [µg/mL] | MIC [2, 22] [µg/mL] | MIC ([3]; Acinetobacter baumannii AYE) [µg/mL] | MIC [4] [µg/mL] | MIC alone Bolalipid [5] [µg/mL] | MIC [6, 23] [µg/mL] | MIC [7] [µg/mL] | MIC [8] [µg/mL] | MIC [9] [µg/mL] | MIC [10] [µg/mL] | MIC [11] [µg/mL] | MIC [12] [µg/mL] | MIC [13] [µg/mL] | nanoparticle formation (DLS) [14] | MIC [15, 24] [µg/mL] | MIC [16] [µg/mL] | Toxicity (EC50) [17] [µg/mL] | Toxicity (EC50) [18] [µg/mL] | DNA intercalation [19] | relaxation of supercoiled plasmid through the action of topoisomerase I [19] | also measured |
| --- | --- | --- | --- | --- | --- | --- | --- | --- | --- | --- | --- | --- | --- | --- | --- | --- | --- | --- | --- | --- | --- |
| Nc1c2c([n+](CCCCCCCCCCCC[n+]3c4c(c(N)c5ccccc53)CCCC4)c3ccccc13)CCCC2 [12-bis-THA Cl2, 12,12′-(Dodecane-1,12-diyl)-bis-(9-amino-1,2,3,4-tetrahydroacridinium) chloride] | 0.5 | 0.125 | 16 | 0.87 | 32 | 1 | 0.25 | 32 | 0.25 | 16 | 2 | 1 | 0.25 | to some extent | 0.5 | 0.28 | 7.1 ± 2.0 | 5.5 ± 2.0 | intercalators | not observed | MIC [20]: 16 µg/mL |
| Cc1cc(N)c2ccccc2[n+]1CCCCCCCCCC[n+]1c(C)cc(N)c2ccccc21 [Dequalinium, dequalinium chloride, reference compound] | – | – | – | – | – | – | – | – | – | – | – | – | – | readily form nanoparticles | – | – | – | – | intercalators | not observed | MIC [1, 25]: 1 µg/mL; MIC ([2]; NCTC13277, EMR Staphylococcus aureus 16 NCTC 13277, read-out: MIC): 4 µg/mL; MIC ([3]; Acinetobacter baumannii AYE, read-out: MIC): 32 µg/mL; MIC ([4]; Mycobacterium tuberculosis, read-out: MIC): 3.51 µg/mL; MIC [5]: > 32 µg/mL; MIC ([6]; NCTC12201, VR Enterococcus faecalis NCTC 12201, read-out: MIC): 16 µg/mL; MIC [7, 26]: 0.5 µg/mL; MIC ([8]; read-out: MIC): > 32 µg/mL; MIC [9, 27]: 0.5 µg/mL; MIC ([10]; ATCC17978, read-out: MIC): 32 µg/mL; MIC [11, 28]: 8 µg/mL; MIC [12, 28]: 4 µg/mL; MIC [13, 29]: 0.5 µg/mL; Selectivity index [21]: 0.69; MIC ([15]; NCTC12204, VR Enterococcus faecium NCTC 12204, read-out: MIC): 8 µg/mL; MIC [16, 30]: 0.68 µg/mL; EC50 [17]: 34.7 ± 13.9 µg/mL; EC50 [18]: 9.9 ± 3.3 µg/mL; MIC ([20]; read-out: MIC): > 32 µg/mL |
| Nc1c2c([n+](CCCCCCCCCCCC[n+]3c4c(c(N)c5ccccc53)CCC4)c3ccccc13)CCC2 [Penta-bola] | 0.5 | 0.5 | 32 | 0.19 | 32 | 1 | 0.25 | 32 | 0.25 | 16 | 1 | 1 | 0.25 | to some extent | 1 | 0.10 | 9.5 ± 1.7 | 7.9 ± 1.2 | intercalators | not observed | MIC [20]: 32 µg/mL |
| Cc1c(N)c2ccccc2[n+](CCCCCCCCCCCC[n+]2c(C)c(C)c(N)c3ccccc32)c1C [Quino-bola] | – | – | – | – | – | – | – | – | – | – | – | – | – | – | – | – | – | – | intercalators | not observed | MIC [1, 25]: 1 µg/mL; MIC ([2]; Staphylococcus aureus, NCTC13277): 1 µg/mL; MIC ([3]; Acinetobacter baumannii): 32 µg/mL; MIC [5]: > 32 µg/mL; MIC ([6]; Enterococcus faecalis, NCTC12201): 2 µg/mL; MIC [7, 26]: 0.25 µg/mL; MIC ([8]; read-out: MIC): > 32 µg/mL; MIC [9, 27]: 0.25 µg/mL; MIC ([10]; ATCC17978, read-out: MIC): 16 µg/mL; MIC [11, 28]: 2 µg/mL; MIC [12, 28]: 0.5 to 2 µg/mL; MIC [13, 29]: 0.25 µg/mL; Selectivity index [21]: 0.55; MIC ([15]; Enterococcus faecium, NCTC12204): 2 µg/mL; MIC [16, 30]: 0.49 µg/mL; EC50 [17]: 13.9 ± 9.5 µg/mL; EC50 [18]: 13.6 ± 0.6 µg/mL; MIC ([20]; read-out: MIC): 32 µg/mL |
